Assay results published in patent US6500842B1, “8-hydroxy-7-substituted quinolines as anti-viral agents” (Pharmacia & Upjohn Company, priority 1996, dated 2002).
Values joined by “and” are separate entries in the source; they are usually repeats but may differ in a detail not shown here. Equal entries are not always repeated. Where two headings read alike, the source gives them in different places.

Columns and labels:
HCMV polymerase = biological target: T1, HCMV polymerase (Human cytomegalovirus, UniProt P08546); assay: HCMV polymerase assay (scintillation proximity assay); format: biochemical; conditions: pol type CMV
T1 construct: made in house; host or cells: recombinant baculovirus-infected SF-9 cells
Outline: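 Baculovirus/SF-9-expressed purified enzyme in HEPES pH 7.5, KCl, 4.5 mM MgCl2, BSA, with 90 nM ³H-dTTP, ± 2 mM CHAPS; started with 6 nM biotinylated poly(dA)-oligo(dT), 30 min, stopped with EDTA. Incorporation read by streptavidin SPA beads; IC50 by linear regression.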

[1] = Table 1, read-out: CMV pol Assay IC50

T1 sequence (P08546 whole entry): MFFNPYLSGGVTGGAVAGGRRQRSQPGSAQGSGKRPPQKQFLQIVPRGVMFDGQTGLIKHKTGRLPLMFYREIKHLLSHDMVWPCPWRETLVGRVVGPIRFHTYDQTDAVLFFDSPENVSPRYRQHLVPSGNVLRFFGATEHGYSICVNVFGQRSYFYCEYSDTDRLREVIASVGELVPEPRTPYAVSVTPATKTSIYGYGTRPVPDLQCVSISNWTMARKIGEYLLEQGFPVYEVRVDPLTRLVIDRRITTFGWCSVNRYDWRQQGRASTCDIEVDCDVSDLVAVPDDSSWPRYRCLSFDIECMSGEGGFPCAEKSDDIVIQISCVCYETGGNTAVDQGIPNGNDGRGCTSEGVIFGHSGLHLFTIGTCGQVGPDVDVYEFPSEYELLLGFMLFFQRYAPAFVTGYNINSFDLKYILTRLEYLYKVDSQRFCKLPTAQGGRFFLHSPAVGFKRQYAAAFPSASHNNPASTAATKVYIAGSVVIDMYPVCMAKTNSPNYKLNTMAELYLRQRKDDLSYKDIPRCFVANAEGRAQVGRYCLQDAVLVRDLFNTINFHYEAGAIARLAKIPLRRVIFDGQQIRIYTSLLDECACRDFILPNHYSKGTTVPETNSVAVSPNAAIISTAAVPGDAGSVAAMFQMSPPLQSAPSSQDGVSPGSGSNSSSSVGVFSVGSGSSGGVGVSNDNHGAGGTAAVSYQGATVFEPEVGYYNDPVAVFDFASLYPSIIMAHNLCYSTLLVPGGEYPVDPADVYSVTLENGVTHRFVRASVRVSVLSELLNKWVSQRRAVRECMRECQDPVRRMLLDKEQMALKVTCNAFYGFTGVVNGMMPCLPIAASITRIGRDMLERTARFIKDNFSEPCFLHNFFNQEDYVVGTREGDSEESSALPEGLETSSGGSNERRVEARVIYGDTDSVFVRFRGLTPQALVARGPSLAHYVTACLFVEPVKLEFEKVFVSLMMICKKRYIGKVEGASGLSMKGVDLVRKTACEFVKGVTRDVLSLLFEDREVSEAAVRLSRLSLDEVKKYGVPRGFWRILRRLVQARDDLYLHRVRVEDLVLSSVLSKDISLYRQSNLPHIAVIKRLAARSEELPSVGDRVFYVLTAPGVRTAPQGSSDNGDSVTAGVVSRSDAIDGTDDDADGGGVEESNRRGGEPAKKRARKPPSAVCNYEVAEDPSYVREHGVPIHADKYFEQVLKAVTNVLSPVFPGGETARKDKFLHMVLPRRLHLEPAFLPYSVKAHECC

Structure (SMILES) | IC50 (HCMV polymerase; Table 5, read-out: IC50) | melting point | IC50 (HCMV polymerase; [1]) | IC50 (HCMV polymerase; Table 2, read-out: IC50)
O=C(Nc1ccc(Cl)cc1)c1cc(Cl)c2cccnc2c1O [Example 15, 5-Chloro-N-(4-chlorophenyl)-8-hydroxy-7-quinolinecarboxamide] | – | 214 to 216 °C | 1.6 µM | –
O=C(NCc1ccc(Cl)cc1)c1cc(F)c2cccnc2c1O [Example 16, 5-Fluoro-N-[[4-chlorophenyl]methyl]-8-hydroxy-7-quinolinecarboxamide] | – | 184 to 185 °C | 5.8 µM | –
Cc1ccc2c(Cl)cc(S(=O)(=O)NCc3ccc(Cl)cc3)c(O)c2n1 [Example 17, 5-Chloro-N-[(4-chlorophenyl)methyl]-8-hydroxy-2-methyl-7-quinolinesulfonamide] | – | 158 to 161 °C (dec.) | – | 11.3 µM
CC(C)(C)c1ccc2c(Cl)cc(S(=O)(=O)NCc3ccc(Cl)cc3)c(O)c2n1 [Example 19, 5-Chloro-N-[(4-chlorophenyl)methyl]-2-(1,1-dimethylethyl)-8-hydroxy-7-quinolinesulfonamide] | – | 162 to 163 °C (dec.) | – | 23.6 µM
Cc1ccc2ccc(C(=O)NCc3ccc(Cl)cc3)c(O)c2n1 [Example 10, N-[(4-Chlorophenyl)methyl]-8-hydroxy-2-methyl-7-quinolinecarboxamide] | – | 95 to 98 °C | 19 µM | –

The next lines start with the values.

IC50 (HCMV polymerase; Table 5, read-out: IC50) | melting point | IC50 (HCMV polymerase; [1]) | IC50 (HCMV polymerase; Table 2, read-out: IC50) | Structure (SMILES)
< 3.1 µM and 0.3 µM | 203 to 205 °C | – | – | COc1ccc(/C=C/c2ccc3ccc(C(=O)NCC(O)c4ccccc4)c(O)c3n2)cc1 (stereo not drawn) [Example 53, 8-Hydroxy-N-(2-hydroxy-2-phenylethyl)-2-[2-(4-methoxyphenyl)ethenyl]-7-quinolinecarboxamide]
31.5 µM and 19.7 µM | 92 to 94 °C | – | – | O=C(NCc1ccc(Cl)cc1)c1ccc2ccc(C(F)(F)F)nc2c1O [Example 55, N-[(4-Chlorophenyl)methyl]-8-hydroxy-2-(trifluoromethyl)-7-quinolinecarboxamide]
– | 97 °C (dec.) | – | 14.5 µM | O=S(=O)(Nc1ccc(Cl)cc1)c1cc(Cl)c2cccnc2c1O [Example 20, 5-Chloro-N-(4-chlorophenyl)-8-hydroxy-7-quinoline-sulfonamide]
0.35 µM and < 0.3 µM | 200 to 201 °C | – | – | COc1ccc(/C=C/c2ccc3ccc(C(=O)NCc4ccc(Cl)cc4)c(O)c3n2)cc1 [Example 47, N-[(4-Chlorophenyl)methyl]-8-hydroxy-2-[2-(4-methoxyphenyl)ethenyl]-7-quinolinecarboxamide]
